Broadly, the IC50 is the concentration that gives 50% inhibition. A low value points to greater potency in that assay. As a reminder, the EC50 is the concentration at which the effect is half-maximal.

What all share (type): cell-based
Test [1] has as its system YAP/TAZ-TEAD transcription. The test is described as follows: Reporter gene assay for measuring the inhibition of YAP/TAZ-TEAD transcription (TEAD-responsive element luciferase reporter, Hek293T cells). The settings on record: Hek293T cells transfected with TEAD-responsive element luciferase reporter, 24 hours incubation. In outline:
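HEK293T cells transiently transfected with a TEAD-responsive luciferase reporter are plated on compounds and incubated 24 h at 37 °C/5% CO2, then read with SteadyLite luminescence. Percent inhibition is normalised to vehicle (0%) and a positive-control inhibitor (100%); IC50 is derived from these values.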

For another test, the system named is NCI-H226. The test is described as follows: Mesothelioma cell line proliferation assay (ATPlite), NCI-H226. The settings on record: NCI-H226 cells, 6 days with compound, ATPlite cell viability. As for the experimental part: (§1) Mesothelioma cell lines, NCI-H226 and NCI-H2052 (both sourced from the ATCC cell culture collection) were plated in 96-well plates (Corning® 96 Well White Polystyrene Microplate clear flat bottom, white polystyrene (TC-Treated)), at 1500 cells/well in full medium (RPMI 1640 ATCC modification with L-glutamine, HEPES, Phenol Red, Sodium Pyruvate, High glucose, Low sodium bicarbonate and 10% fetal bovine serum). Cells were incubated overnight at 37° C. in an incubator with 5% CO2. Then compounds, dissolved in DMSO, were added in dose-response. Cells were incubated with compound dilutions for another 6 days at 37° C. in an incubator with 5% CO2. Cell viability was quantitated using the ATPlite kit (Perkin-Elmer) and the luminescence was read-out using an Envision instrument (Perkin-Elmer). The amount of relative light units produced using the ATPlite kit was used to calculate percent of inhibition.
(§2) The activities of some example compounds are depicted in Table 4. The activity ranges A, B and C refer to EC50 values in the mesothelioma cell line proliferation assay as described as follows: “A”: EC50<1 μM; “B”: 1 μM≤EC50<10 μM and “C”: EC50>10 μM; NT: not tested.
For orientation: Cellular ATP, detected with luciferase, serves as a proxy for viable cell number.

The next test deals with NCI-H2052. Briefly: Mesothelioma cell line proliferation assay (ATPlite), NCI-H2052. Particulars: NCI-H2052 cells, 6 days with compound, ATPlite cell viability. The protocol: as §1, §2

The molecule `C=CC(=O)NCC1Cc2c(OCc3cc[nH]c(=O)c3)cccc2N(c2ccc(C(F)(F)F)cc2)C1` (single isomer, unassigned) [Cpd. No. 6-En2, (R)- or (S)-N-((5-((2-oxo-1,2-dihydropyridin-4-yl)methoxy)-1-(4-(trifluoromethyl)phenyl)-1,2,3,4-tetrahydroquinolin-3-yl)methyl)acrylamide] registered an IC50 in test [1] of less than 1000 nM. The concentration for a half-maximal effect (EC50) is less than 1000 nM in the test with NCI-H226 (Homo sapiens, 144 h) and less than 1000 nM with NCI-H2052 (Homo sapiens, 144 h).

Regarding `C=CC(=O)NCC1Cc2ncccc2N(c2ccc(C(F)(F)F)cc2)C1` (single isomer, unassigned) [Cpd. No. 10-En1, (R)- or (S)-N-((1-(4-(trifluoromethyl)phenyl)-1,2,3,4-tetrahydro-1,5-naphthyridin-3-yl)methyl)acrylamide], the IC50 in test [1] (Homo sapiens, HEK-293T, 24 h) is less than 1000 nM. In addition, the EC50 in the test with NCI-H226 (Homo sapiens, 144 h) is less than 1000 nM; in the test on NCI-H2052 (Homo sapiens, 144 h) it was less than 1000 nM.

On to `CC(=O)NCC1Cc2ncccc2N(c2ccc(C(F)(F)F)cc2)C1` (single isomer, unassigned) [Cpd. No. 12-En2, (R)- or (S)-N-((1-(4-(trifluoromethyl)phenyl)-1,2,3,4-tetrahydro-1,5-naphthyridin-3-yl)methyl)acetamide], for which the IC50 in test [1] is less than 1000 nM. For the same molecule, the EC50 in the test on NCI-H226 (Homo sapiens, 144 h) is less than 1000 nM; in the test with NCI-H2052 (Homo sapiens, 144 h) it was less than 1000 nM.

On to `C=CC(=O)NCC1Cc2c(OCc3cc(=O)[nH]c(=O)n3C)cccc2N(c2ccc(C(F)(F)F)cc2)C1` (single isomer, unassigned) [Cpd. No. 14-En1, (R)- or (S)-N-((5-((3-methyl-2,6-dioxo-1,2,3,6-tetrahydropyrimidin-4-yl)methoxy)-1-(4-(trifluoromethyl)phenyl)-1,2,3,4-tetrahydroquinolin-3-yl)methyl)acrylamide], for which the half-maximal inhibitory concentration (IC50) in test [1] (Homo sapiens, HEK-293T, 24 h) is less than 1000 nM. Moreover, the EC50 with NCI-H226 (Homo sapiens, 144 h) is less than 1000 nM; in the test on NCI-H2052 (Homo sapiens, 144 h), less than 1000 nM.

Turning to `C=CC(=O)NCC1Cc2c(OCc3cc(=O)[nH]c(=O)n3C)cccc2N(c2ccc(C(F)(F)F)cc2)C1` (single isomer, unassigned) [Cpd. No. 14-En2, (R)- or (S)-N-((5-((3-methyl-2,6-dioxo-1,2,3,6-tetrahydropyrimidin-4-yl)methoxy)-1-(4-(trifluoromethyl)phenyl)-1,2,3,4-tetrahydroquinolin-3-yl)methyl)acrylamide], the EC50 in the test with NCI-H226 and in the test with NCI-H2052 was less than 1000 nM each time.

The molecule `CCC(=O)NCC1Cc2ncccc2N(c2ccc(C(F)(F)F)cc2)C1` (single isomer, unassigned) [Cpd. No. 17-En2, (R)- or (S)-N-((1-(4-(trifluoromethyl)phenyl)-1,2,3,4-tetrahydro-1,5-naphthyridin-3-yl)methyl)propionamide] gave an IC50 in test [1] of less than 1000 nM. Besides, the EC50 is less than 1000 nM in the test with NCI-H226 (Homo sapiens, 144 h) and less than 1000 nM with NCI-H2052 (Homo sapiens, 144 h).

With `COc1ccc2c(n1)CC(CNC(C)=O)CN2c1ccc(C(F)(F)F)cc1` (single isomer, unassigned) [Cpd. No. 22-En2, (R)- or (S)-N-((6-methoxy-1-(4-(trifluoromethyl)phenyl)-1,2,3,4-tetrahydro-1,5-naphthyridin-3-yl)methyl)acetamide], in test [1], the IC50 was less than 1000 nM. Besides, the EC50 in the test with NCI-H226 (Homo sapiens, 144 h) is less than 1000 nM; in the test with NCI-H2052 (Homo sapiens, 144 h), less than 1000 nM.

Consider `CC(=O)NCC1Cc2nc(C)ccc2N(c2ccc(C(F)(F)F)cc2)C1` (single isomer, unassigned) [Cpd. No. 26-En2, (R)- or (S)-N-((6-methyl-1-(4-(trifluoromethyl)phenyl)-1,2,3,4-tetrahydro-1,5-naphthyridin-3-yl)methyl)acetamide], for which the IC50 in test [1] is less than 1000 nM. The EC50 in the test on NCI-H226 (Homo sapiens, 144 h) was less than 1000 nM; with NCI-H2052 (Homo sapiens, 144 h), less than 1000 nM.

`[2H]C([2H])([2H])C(=O)NCC1Cc2ncccc2N(c2ccc(C(F)(F)F)cc2)C1` (single isomer, unassigned) [Cpd. No. 34-En2, (R)- or (S)-N-((1-(4-(trifluoromethyl)phenyl)-1,2,3,4-tetrahydro-1,5-naphthyridin-3-yl)methyl)acetamide-2,2,2-d3]: in test [1], the IC50 is less than 1000 nM. Further, the EC50 in the test with NCI-H226 (Homo sapiens, 144 h) is less than 1000 nM; with NCI-H2052 (Homo sapiens, 144 h) it was less than 1000 nM.

On to `CC(=O)NCC1(C)Cc2ncccc2N(c2ccc(C(F)(F)F)cc2)C1` (single isomer, unassigned) [Cpd. No. 47-En1, (R)- or (S)-N-((3-methyl-1-(4-(trifluoromethyl)phenyl)-1,2,3,4-tetrahydro-1,5-naphthyridin-3-yl)methyl)acetamide], for which the IC50 in test [1] is less than 1000 nM. Further, the EC50 in the test with NCI-H226 (Homo sapiens, 144 h) was less than 1000 nM; in the test with NCI-H2052 (Homo sapiens, 144 h), less than 1000 nM.

In test [1] (Homo sapiens, HEK-293T, 24 h), `C=CC(=O)NCC1Cc2c(OCc3cc(=O)[nH]c(=O)[nH]3)cccc2N(c2ccc(C(F)(F)F)cc2)C1` (centres unmarked) [Cpd. No. 4, N-((5-((2,6-dioxo-1,2,3,6-tetrahydropyrimidin-4-yl)methoxy)-1-(4-(trifluoromethyl)phenyl)-1,2,3,4-tetrahydroquinolin-3-yl)methyl)acrylamide] gave a half-maximal inhibitory concentration (IC50) of less than 1000 nM. Besides, the EC50 with NCI-H226 (Homo sapiens, 144 h) was less than 1000 nM; in the test with NCI-H2052 (Homo sapiens, 144 h), less than 1000 nM.

Consider `C=CC(=O)NCC1Cc2c(OCc3cc[nH]c(=O)c3)cccc2N(c2ccc(C(F)(F)F)cc2)C1` (centres unmarked) [Cpd. No. 6, N-((5-((2-oxo-1,2-dihydropyridin-4-yl)methoxy)-1-(4-(trifluoromethyl)phenyl)-1,2,3,4-tetrahydroquinolin-3-yl)methyl)acrylamide], for which the IC50 in test [1] (Homo sapiens, HEK-293T, 24 h) is less than 1000 nM. Also, the EC50 in the test on NCI-H226 (Homo sapiens, 144 h) was less than 1000 nM; with NCI-H2052 (Homo sapiens, 144 h), less than 1000 nM.

In test [1] (Homo sapiens, HEK-293T, 24 h), `CCC(=O)NCC1Cc2c(OCc3cc[nH]c(=O)c3)cccc2N(c2ccc(C(F)(F)F)cc2)C1` (centres unmarked) [Cpd. No. 7, N-((5-((2-oxo-1,2-dihydropyridin-4-yl)methoxy)-1-(4-(trifluoromethyl)phenyl)-1,2,3,4-tetrahydroquinolin-3-yl)methyl)propionamide] displayed an IC50 of less than 1000 nM. Also, the EC50 in the test on NCI-H226 (Homo sapiens, 144 h) was less than 1000 nM; in the test on NCI-H2052 (Homo sapiens, 144 h), less than 1000 nM.

In turn, `C=CC(=O)NCC1Cc2ncccc2N(c2ccc(C(F)(F)F)cc2)C1` (centres unmarked) [Cpd. No. 10, N-((1-(4-(trifluoromethyl)phenyl)-1,2,3,4-tetrahydro-1,5-naphthyridin-3-yl)methyl)acrylamide] had an IC50 in test [1] (Homo sapiens, HEK-293T, 24 h) of less than 1000 nM. For the same molecule, the half-maximal effective concentration (EC50) was less than 1000 nM in the test on NCI-H226 (Homo sapiens, 144 h) and less than 1000 nM in the test with NCI-H2052 (Homo sapiens, 144 h).

In turn, `C=CC(=O)NCC1Cc2c(CCN3CC(=O)NC(=O)C3)cccc2N(c2ccc(C(F)(F)F)cc2)C1` (centres unmarked) [Cpd. No. 11, N-((5-(2-(3,5-dioxopiperazin-1-yl)ethyl)-1-(4-(trifluoromethyl)phenyl)-1,2,3,4-tetrahydroquinolin-3-yl)methyl)acrylamide] returned an IC50 in test [1] (Homo sapiens, HEK-293T, 24 h) of less than 1000 nM. Also, the half-maximal effective concentration (EC50) with NCI-H226 (Homo sapiens, 144 h) was less than 1000 nM; with NCI-H2052 (Homo sapiens, 144 h), less than 1000 nM.

In the case of `CC(=O)NCC1Cc2ncccc2N(c2ccc(C(F)(F)F)cc2)C1` (centres unmarked) [Cpd. No. 12, N-((1-(4-(trifluoromethyl)phenyl)-1,2,3,4-tetrahydro-1,5-naphthyridin-3-yl)methyl)acetamide], in test [1] (Homo sapiens, HEK-293T, 24 h), the IC50 was less than 1000 nM. The EC50 is less than 1000 nM with NCI-H226 (Homo sapiens, 144 h) and less than 1000 nM in the test with NCI-H2052 (Homo sapiens, 144 h).

On to `C=CC(=O)NCC1Cc2c(OCc3cc(=O)[nH]c(=O)n3C)cccc2N(c2ccc(C(F)(F)F)cc2)C1` (centres unmarked) [Cpd. No. 14, N-((5-((3-methyl-2,6-dioxo-1,2,3,6-tetrahydropyrimidin-4-yl)methoxy)-1-(4-(trifluoromethyl)phenyl)-1,2,3,4-tetrahydroquinolin-3-yl)methyl)acrylamide], for which, in test [1] (Homo sapiens, HEK-293T, 24 h), the IC50 is less than 1000 nM. In addition, the EC50 in the test with NCI-H226 (Homo sapiens, 144 h) is less than 1000 nM; in the test with NCI-H2052 (Homo sapiens, 144 h), less than 1000 nM.

As for `CC(=O)NCC1Cc2nc(C)ccc2N(c2ccc(C(F)(F)F)cc2)C1` (centres unmarked) [Cpd. No. 26, N-((6-methyl-1-(4-(trifluoromethyl)phenyl)-1,2,3,4-tetrahydro-1,5-naphthyridin-3-yl)methyl)acetamide], in test [1] (Homo sapiens, HEK-293T, 24 h), the IC50 was less than 1000 nM. Moreover, the EC50 with NCI-H226 (Homo sapiens, 144 h) was less than 1000 nM; in the test on NCI-H2052 (Homo sapiens, 144 h), less than 1000 nM.
